Article PMC6467533 (Chembiochem : a European journal of chemical biology, 2018)

Target: Mtb TPP (Mycobacterium tuberculosis, UniProt P9WFZ5)
Assay type: biochemical

Sequence of Mtb TPP (P9WFZ5 whole entry, looked up): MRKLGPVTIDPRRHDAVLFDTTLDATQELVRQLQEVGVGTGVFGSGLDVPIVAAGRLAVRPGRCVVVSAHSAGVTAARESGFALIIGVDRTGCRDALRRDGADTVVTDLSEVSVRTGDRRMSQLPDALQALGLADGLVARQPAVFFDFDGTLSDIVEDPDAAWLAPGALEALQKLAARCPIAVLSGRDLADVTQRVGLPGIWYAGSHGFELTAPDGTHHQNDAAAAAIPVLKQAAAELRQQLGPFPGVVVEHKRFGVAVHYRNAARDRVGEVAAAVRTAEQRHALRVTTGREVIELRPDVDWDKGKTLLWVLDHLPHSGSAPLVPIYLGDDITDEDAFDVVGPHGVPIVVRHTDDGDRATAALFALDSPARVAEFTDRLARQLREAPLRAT

In the case of O=P(O)(O)C[C@H]1O[C@H](O[C@H]2O[C@H](CO)[C@@H](O)[C@H](O)[C@H]2O)[C@H](O)[C@@H](O)[C@@H]1O [TMP, 6-Deoxy-6-(phosphonic acid)-α,α’-trehalose], the “IC50 fold worse than the determined T6P KM, Mtb TPP” value is reported as 2.8 fold.
